Test results: PMC5701947, “β1-Adrenergic Receptor Contains Multiple IA^k and IE^k Binding Epitopes That Induce T Cell Responses with Varying Degrees of Autoimmune Myocarditis in A/J Mice” (Frontiers in Immunology, 2017)
Entries after “also recorded” stand apart in the source; their conditions may differ. Residues, ends and D or L forms follow the SMILES beside them. No end group written: not given here.

Key:
[1] = tested on: non-cardiac tissues (brain, lung, liver, kidney); conditions: mouse, in vivo
IA^k = molecular target: T1, IA^k (Mus musculus, UniProt P01910+P06343); assay: MHC class II-binding assay, IA^k; parameters: species or system A/J mice; conditions: competition with biotinylated HEL 46–61 (1 µM); empty IA^k monomers 0.35 µg; competitor 0.00001–100 µM; pH 7.0, overnight, RT; DELFIA europium fluorescence 340/615 nm; mean ± SEM, three experiments with two replicates each
T1 construct: soluble IA^k and IE^k monomers were expressed; class II-associated invariant-chain peptide (CLIP) 88–102 (VSQMRMATPLLMRPM) with thrombin cleavage site (cleaved yes); made in house; host or cells: baculovirus expression (sf9 cells are named only for the IA^k dextramer constructs)
T1 sequence (P01910 24-218 limits assumed): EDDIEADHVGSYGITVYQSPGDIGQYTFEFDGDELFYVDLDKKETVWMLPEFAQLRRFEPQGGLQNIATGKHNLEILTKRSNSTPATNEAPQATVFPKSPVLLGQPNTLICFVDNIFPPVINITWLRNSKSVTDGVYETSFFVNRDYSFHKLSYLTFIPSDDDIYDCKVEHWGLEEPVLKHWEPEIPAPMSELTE
T1 sequence (P06343 28-224 limits assumed): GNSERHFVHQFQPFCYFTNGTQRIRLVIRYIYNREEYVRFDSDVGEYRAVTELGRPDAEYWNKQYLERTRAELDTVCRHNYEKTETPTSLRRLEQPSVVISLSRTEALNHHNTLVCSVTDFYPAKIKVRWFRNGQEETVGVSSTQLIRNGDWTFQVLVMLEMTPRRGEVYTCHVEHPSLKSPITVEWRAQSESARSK
Experimental: A/J mice express two MHC class II alleles, IA^k and IE^k ([33], [34]), and to determine the affinities of β1AR peptides, soluble IA^k and IE^k monomers were expressed ([34], [35]). In brief, the β-chain in each of IA^k and IE^k constructs contain sequence for class II-associated invariant-chain peptide 88–102 (VSQMRMATPLLMRPM) linked with thrombin cleavage site ([34], [35]). After expressing in the baculovirus, soluble IA^k and IE^k monomers were treated with thrombin (20 U/mg; Novagen, Madison, WI, USA) to release class II-associated invariant-chain peptide leading us to obtain empty IA^k and IE^k molecules. Reaction mixtures were prepared to include empty IA^k or IE^k monomers (0.35 µg), competitor peptides (β1ARAc 171–190, β1ARAc 181–200, β1ARAc 201–220, and β1ARAc 211–230) (0.00001–100 µM), and constant amounts of the biotinylated reference peptides HEL 46–61 (for IA^k) or MCC 82–103 (for IE^k) (1 µM) in a buffer containing 50 mM sodium phosphate pH 7.0, 100 mM sodium chloride, 1 mM EDTA, and 1 × protease inhibitor (Sigma-Aldrich, St. Louis, MO, USA) ([36]–[38]). After incubating overnight at RT, the mixtures were transferred to 96-well white fluorescence plates coated with anti-IA^k (clone 10-2.16, BioXcell, West Lebanon, NH, USA), and anti-IE^k (clone M5/114, BioXcell) Abs (10 µg/ml) in 0.2 M sodium phosphate buffer, pH 6.8, blocked with 2% bovine casein; and the plates were incubated on a rocker at RT for 1 h. Finally, after adding 100 µl of europium-labeled streptavidin (0.1 µg/ml) and dissociation-enhanced lanthanide fluoroimmunoassay (DELFIA) enhancement solution (Perkin Elmer) sequentially, fluorescence intensities were measured at excitation/emission wavelengths of 340/615 nm using a Victor Multilabel Plate Reader (Perkin Elmer). The IC50 values were determined based on the concentrations of competitor peptides needed to prevent 50% binding of the reference peptides as we have described previously ([26], [28], [30]).

[2] = tested on: T cells (lymph node cells/splenocytes from immunized animals); assay: T cell proliferation assay ([3H]-thymidine); format: cell-based, A/J mice; conditions: for T cell responses: fold vs medium control; for T cell responses (in words): proliferation, 0–100 µg/ml, 2 days + 16 h [3H]-thymidine, cpm
Experimental: At termination, lymph nodes (maxillary, mandibular, axillary, inguinal, and popliteal) and spleens were harvested from immunized animals to prepare single cell suspensions. Similarly, splenocytes were prepared from naive animals. After lysing the erythrocytes and washing, cell pellets were suspended in RPMI medium containing 10% fetal bovine serum, 1 mM sodium pyruvate, 4 mM L-glutamine, 1 × each of non-essential amino acids and vitamin mixture, and 100 U/ml penicillin–streptomycin (Lonza, Walkersville, MD, USA; hereafter called growth medium). In some experiments, CD4 T cells and CD8 T cells were enriched to a purity of ~95% by negative selection based on magnetic separation using IMAG (BD Biosciences, San Jose, CA, USA) ([31]). To stimulate CD4 and CD8 T cells, syngeneic naive irradiated splenocytes loaded with peptides were used as antigen-presenting cells at a ratio of 1:1. Cells were stimulated at a density of ~5 × 10^6 cells/ml in triplicates with or without the immunizing peptides (0–100 µg/ml) in growth medium. RNase 43–56 or HEL 46–61 were used as irrelevant controls. After 2 days, cells were pulsed with tritiated ^3[H]-thymidine (1 μCi/well; MP Biomedicals, Santa Ana, CA, USA), and 16 h later, proliferative responses were measured as counts per minute (cpm) using a Wallac liquid scintillation counter (Perkin Elmer, Waltham, MA, USA) ([26], [28], [30]).

A/J mice (hearts) = assay: Induction of myocarditis by active immunization with peptides (histology); format: in vivo; conditions: for Myocarditis incidence / Myocarditis incidence (animals with disease/total) / Inflammatory foci: individual non-acetylated peptide, 100 µg per animal; for Myocarditis incidence / Myocarditis incidence (animals with disease/total): CFA/PT, days 0 and 7, day 21; for Inflammatory foci: mean ± SEM of myocarditic animals
rabbits, rats, and mice = conditions: cited from earlier work
Source text: While, an assumption made in these studies that a single epitope of β1AR can act as an immunogen in various species despite the major histocompatibility complex (MHC) alleles to be different was found valid, identification of other potential immunodominant epitopes, if any, was not explored. Lik ... || In this report, we describe identification of T cell epitopes of β1AR in A/J mice that are highly susceptible to lymphocytic myocarditis induced by various cardiac antigens namely, Myhc ([28]), cardiac troponin I ([47]), ANT ([26]), and BCKD kinase ([30]). Importance of β1AR in the cardiac disease has long been investigated in that patients with myocarditis/DCM, in particular, IDCM show β1AR-reactive antibodies.

[3] = 10 μg/ml, animals immunized with pool IV
[4] = 100 μg/ml, animals immunized with pool IV
[5] = 10 μg/ml, animals immunized with pool VIII
[6] = 100 μg/ml, animals immunized with pool VIII

Ac-TVWAISALVSFLPILMHWWR [β1ARAc 181–200]
Brain, incidence (animals affected/total) [1]: 0/6 | Brain, incidence of inflammation [1]: 0% | Brain, inflammatory foci [1]: 0 | Kidney, incidence (animals affected/total) [1]: 0/6 | Kidney, incidence of inflammation [1]: 0% | Kidney, inflammatory foci [1]: 0 | Liver, incidence (animals affected/total) [1]: 6/6 | Liver, incidence of inflammation [1]: 100% | Liver, inflammatory foci [1]: 44.50 ± 11.66 | Lung, incidence (animals affected/total) [1]: 6/6 | Lung, incidence of inflammation [1]: 100% | Lung, inflammatory foci [1]: 3.17 ± 0.60 | IC50 (IA^k): 97.1 ± 2.07 µM

β1AR 191-210: 20-mer of mouse β1AR peptide library (FLPILMHWWRAESDEARRCY; UniProt P34971 191-210, looked up, fragment)
T cell responses [2, 3]: 1.26 fold | T cell responses [2, 4]: 1.63 fold | Myocarditis incidence (A/J mice (hearts)): 0% | Myocarditis incidence (animals with disease/total) (A/J mice (hearts)): 0/5 | Inflammatory foci (A/J mice (hearts)): 0

NDPKCCDFVTNRAYAIASSV [β1AR 211-230, 20-mer of mouse β1AR peptide library]
T cell responses [2, 3]: 3.15 fold | T cell responses [2, 4]: 3.27 fold | Disease severity (in words) (A/J mice (hearts); individual immunization, non-acetylated peptides): mild disease | Myocarditis incidence (A/J mice (hearts)): 40% | Myocarditis incidence (animals with disease/total) (A/J mice (hearts)): 2/5 | Inflammatory foci (A/J mice (hearts)): 2.0 ± 1.0

β1AR 391-410: 20-mer of mouse β1AR peptide library (RAAHGDRPRASGCLARAGPP; UniProt P34971 391-410, looked up, fragment)
T cell responses [2, 5]: 1.03 fold | T cell responses [2, 6]: 1.18 fold | T cell responses (in words) [2]: did not show T cell responses | Myocarditis incidence (A/J mice (hearts)): 0% | Myocarditis incidence (animals with disease/total) (A/J mice (hearts)): 0/5 | Inflammatory foci (A/J mice (hearts)): 0

Ac-TRARARALVCTVWAISALVS [β1ARAc 171–190]
Brain, incidence (animals affected/total) [1]: 0/6 | Brain, incidence of inflammation [1]: 0% | Brain, inflammatory foci [1]: 0 | Kidney, incidence (animals affected/total) [1]: 0/6 | Kidney, incidence of inflammation [1]: 0% | Kidney, inflammatory foci [1]: 0 | Liver, incidence (animals affected/total) [1]: 6/6 | Liver, incidence of inflammation [1]: 100% | Liver, inflammatory foci [1]: 29.17 ± 6.83 | Lung, incidence (animals affected/total) [1]: 6/6 | Lung, incidence of inflammation [1]: 100% | Lung, inflammatory foci [1]: 4.33 ± 0 .21 | IC50 (IA^k): 26.1 ± 12.4 µM

CC[C@H](C)[C@H](NC(=O)[C@H](C)NC(=O)[C@H](Cc1ccc(O)cc1)NC(=O)[C@H](C)NC(=O)[C@H](CCCNC(=N)N)NC(=O)[C@H](CC(N)=O)NC(=O)[C@@H](NC(=O)[C@@H](NC(=O)[C@H](Cc1ccccc1)NC(=O)[C@H](CC(=O)O)NC(=O)[C@H](CS)NC(=O)[C@H](CS)NC(=O)[C@H](CCCCN)NC(=O)[C@@H]1CCCN1C(=O)[C@H](CC(=O)O)NC(=O)[C@H](CC(N)=O)NC(C)=O)C(C)C)[C@@H](C)O)C(=O)N[C@@H](C)C(=O)N[C@@H](CO)C(=O)N[C@@H](CO)C(=O)N[C@H](C(=O)O)C(C)C [β1ARAc 211–230] (Ac-NDPKCCDFVTNRAYAIASSV-OH)
Brain, incidence (animals affected/total) [1]: 0/5 | Brain, incidence of inflammation [1]: 0% | Brain, inflammatory foci [1]: 0 | Kidney, incidence (animals affected/total) [1]: 0/6 | Kidney, incidence of inflammation [1]: 0% | Kidney, inflammatory foci [1]: 0 | Liver, incidence (animals affected/total) [1]: 6/6 | Liver, incidence of inflammation [1]: 100% | Liver, inflammatory foci [1]: 20.33 ± 4.83 | Lung, incidence (animals affected/total) [1]: 5/6 | Lung, incidence of inflammation [1]: 83% | Lung, inflammatory foci [1]: 2.50 ± 1.34 | IC50 (IA^k): 18.6 ± 1.23 µM

HWWRAESDEARRCYNDPKCCDFVTNR [β1AR 197–222]
Cardiac abnormalities in Balb/c mice (in words) (rabbits, rats, and mice; Balb/c mice): cardiac abnormalities could be detected in Balb/c mice only at 25 weeks but not at 14 weeks postimmunization | Antibody induction in rodent species (in words) (rabbits, rats, and mice): shown to induce antibodies in various rodent species | Cardiomyopathy on prolonged immunization (in words) (rabbits, rats, and mice; monthly/biweekly immunizations for 6–18 months): developed cardiac dysfunctions suggestive of DCM, with minimal or no heart infiltrates; also recorded: can develop features of cardiomyopathy during the course of ~1 year with little or no myocarditis | Cardiomyopathic changes in rats (in words) (rabbits, rats, and mice; rats, prolonged immunization): early cardiomyopathic changes at 1 year, but with no necrosis or fibrosis including changes in heart to body weight ratios

β1AR 201-220: 20-mer of mouse β1AR peptide library (AESDEARRCYNDPKCCDFVT; UniProt P34971 201-220, looked up, fragment)
T cell responses [2, 3]: 1.08 fold | T cell responses [2, 4]: 1.37 fold | Myocarditis incidence (A/J mice (hearts)): 0% | Myocarditis incidence (animals with disease/total) (A/J mice (hearts)): 0/5 | Inflammatory foci (A/J mice (hearts)): 0

β1AR 381-400: 20-mer of mouse β1AR peptide library (CCARRAACRRRAAHGDRPRA; UniProt P34971 381-400, looked up, fragment)
T cell responses [2, 5]: 1.10 fold | T cell responses [2, 6]: 1.45 fold | T cell responses (in words) [2]: did not show T cell responses | Myocarditis incidence (A/J mice (hearts)): 0% | Myocarditis incidence (animals with disease/total) (A/J mice (hearts)): 0/5 | Inflammatory foci (A/J mice (hearts)): 0

β1AR 451-466: 16-mer of mouse β1AR peptide library (SLDEPGRQGFSSESKV; UniProt P34971 451-466, looked up, fragment)
T cell responses ([2]; 10 μg/ml, animals immunized with pool IX): 0.95 fold | T cell responses ([2]; 100 μg/ml, animals immunized with pool IX): 1.16 fold

β1AR 261-280: 20-mer of mouse β1AR peptide library (CERRFLGGPARPPSPEPSPS; UniProt P34971 261-280, looked up, fragment)
T cell responses ([2]; 10 μg/ml, animals immunized with pool V): 0.86 fold | T cell responses ([2]; 100 μg/ml, animals immunized with pool V): 1.32 fold

β1AR 311-330: 20-mer of mouse β1AR peptide library (ALKTLGIIMGVFTLCWLPFF; UniProt P34971 311-330, looked up, fragment)
T cell responses ([2]; 10 μg/ml, animals immunized with pool VI): 1.30 fold | T cell responses ([2]; 100 μg/ml, animals immunized with pool VI): 1.21 fold
